Where two headings read alike, the source gives them in different places. Marks after values point to notes of the source that are not given here.
Legend:
white mice = conditions: cited from earlier work
[1] = system: patients with chronic inflammatory bowel disease; assay: Clinical disease activity, symptoms, compliance and tolerability during oral iron therapy; format: in vivo, human; conditions: for total number of defecations per week: median (range)
Experimental: The status of the clinical disease was recorded before (day 1) and after (day 15) the iron therapy. The clinical disease activity was evaluated in patients with Crohn's disease with the “Harvey-Bradshaw Simple Index of Crohn's Disease Activity” (Harvey, R F., Bradshaw, J M., Lancet, 1980; 1:514). The Harvey-Bradshaw Simple Index is based on 5 parameters: general well-being, abdominal pain, stool frequency, abdominal mass and extraintestinal complications. The maximum score is 25 and scores of ≧5 indicate active Crohn's disease.
In patients with colitis ulcerosa, the “Simple Clinical Colitis Activity Index” was recorded (Walmsley, R S., Ayres, R C., Pounder, R E., Allan, R N., Gut 1998; 43; 29-32). The Simple Clinical Colitis Activity Index is based on 6 parameters: general well-being, stool frequency during the day and during the night, urgency of defecation, blood in the stool and extraintestinal complications. The maximum score is 20 and values of ≧4 indicate active colitis ulcerosa.
The Harvey-Bradshaw Simple Index and the Simple Clinical Colitis Activity Index are the same in respect of structure and the clinical significance of a given change in the scores. In order to allow the results of patients with Crohn's disease and colitis ulcerosa to be considered together, the activity scores were calculated as the actual score divided by the maximum score.
All the patients completed the particular Crohn's Disease Activity Index (CDAI) diary card (Best, W R., Becktel, J M., Singleton, J W., Kern, F. Jr., Gastroenterology 1976; 70:439-444) in the week before the start of the iron therapy and during the two weeks of iron therapy. The CDAI diary card comprises daily recording of general well-being, abdominal pain and the number of liquid or very soft stools. The total of seven daily records gives a score for each symptom. The higher the score, the more the patient is adversely affected. The medicament was administered during the study for 14 days and the mean for the two weeks is therefore used for the analysis. The patients also documented the occurrence of nausea before and during the iron therapy.
Patients who discontinued treatment with the medicament because of a deterioration in the symptoms were included in the analysis of the clinical disease activity and the symptom scores. Their disease activity scores were increased by two points, and the symptom scores were increased by one point per day.

[2] = system: patients with chronic inflammatory bowel disease; assay: Markers of oxidative stress (plasma, urine) before and after 14 days oral iron therapy; conditions: for P-malondialdehyde / P-beta-carotene / P-cysteine / P-cysteinyl-glycine / P-glutathione / P-homocysteine / P-vitamin A / P-vitamin C / P-vitamin E: plasma; for P-malondialdehyde / P-beta-carotene / P-cysteine / P-cysteinyl-glycine / P-glutathione / P-homocysteine / P-vitamin A / P-vitamin C / P-vitamin E / U-8-iso-PGF2α: mean (SEM); for U-8-iso-PGF2α: urine
Experimental: (§1) Analysis of the blood, urine and stool and the clinical evaluation of the disease were carried out on day 1 and 15.
(§2) The tablets were taken in accordance with the manufacturer's recommendations. Patient compliance was defined as the consumption of the tablets handed out, 80% being regarded as satisfactory.
(§3) Blood samples were taken, after fasting during the night, on the morning of day 1 and day 15.
Urine samples were collected on the morning of day 1 and day 15 and analysed for creatinine. Butyl-hydroxy-toluene (BHT) was added to 2 ml urine to a final concentration of 20 mM. The samples were then stored at −80° C. until analysed for urine 8-isoprostaglandin F2α (8-iso-PGF2α).
The values were analysed using the Wilcoxon test for pair differences, and the median and range are stated. The comparison of ratios was evaluated with the Fisher Exact test. P values of less than 0.05 are considered to be statistically significant. The data were analysed using the GraphPad Prism 4 for Windows statistics software package (GraphPad Software, Inc., San Diego, USA).

[3] = system: patients with chronic inflammatory bowel disease; conditions: in vivo
Experimental: as §1, §2, §3
The values were analysed using the Wilcoxon test for pair differences, and the median and range are stated. The comparison of ratios was evaluated with the Fisher Exact test. […] The data were analysed using the GraphPad Prism 4 for Windows statistics software package (GraphPad Software, Inc., San Diego, USA).

[4] = mean of differences after vs before 14 days treatment
[5] = after 14 days oral treatment (day 15)

In the case of `O=S(=O)([O-])[O-].[Fe+2]` [Iron(II) sulfate, iron(II) sulfate], the LD50 (white mice) is given as 230 mg iron/kg, the “influence on general wellbeing or abdominal pain score” value ([1]; CDAI diary card) is given as “Neither iron(II) sulfate nor iron(III)-polymaltose complex had an influence” and the “total number of defecations per week” value ([1]; before treatment) is given as 19 (7-106). For the same compound, the “change of clinical disease activity indices” value ([1]; day 15 vs day 1) was “Neither the treatment with iron(II) sulfate (p=0.45) nor the treatment with iron(III)-polymaltose complex (p=0.80) substantially changed the clinical disease activity indices”, the “total number of defecations per week” value ([1]; during the treatment) was 24 (7-55) and the “patients who discontinued the treatment (intolerable bowel movements, abdominal pain and nausea)” value ([1]; of n=21 iron(II) sulfate, n=20 iron(III)-polymaltose complex) was “Three patients”. For the same compound, the Increased nausea reported ([1]; patients reporting / patients treated) was 9/21, the “change in plasma MDA values” [2, 4] was 95 nmol/L and the “change in urine iso-PGF2α values” [2, 4] was 194 pg/mg creatinine. The P-malondialdehyde [2, 5] was 395 (25)* nmol/l, the P-beta-carotene ([2]; after 14 days oral treatment) was 0.67 (0.10) μmol/l and the P-cysteine ([2]; after 14 days oral treatment) was 199 (13) μmol/l. For the same compound, the P-cysteinyl-glycine ([2]; after 14 days oral treatment) was 16.6 (1.2) μmol/l, the P-glutathione ([2]; after 14 days oral treatment) was 5.08 (0.54) μmol/l and the P-homocysteine ([2]; after 14 days oral treatment) was 4.58 (0.47) μmol/l. For the same compound, the “P-vitamin A” value ([2]; after 14 days oral treatment) was 1.8 (0.2) μmol/l, the “P-vitamin C” value ([2]; after 14 days oral treatment) was 58.6 (5.4) μmol/l and the “P-vitamin E” value ([2]; after 14 days oral treatment) was 29.3 (1.5) μmol/l. For the same compound, the P-malondialdehyde ([2]; before treatment (day 1)) was 294 (25) nmol/l, the P-beta-carotene ([2]; before treatment) was 0.67 (0.09) μmol/l and the P-cysteine ([2]; before treatment) was 203 (11) μmol/l. The P-cysteinyl-glycine ([2]; before treatment) was 16.7 (1.1) μmol/l, the P-glutathione ([2]; before treatment) was 5.05 (0.48) μmol/l and the P-homocysteine ([2]; before treatment) was 4.87 (0.59) μmol/l. The “P-vitamin A” value ([2]; before treatment) was 1.7 (0.2) μmol/l, the “P-vitamin C” value ([2]; before treatment) was 60.9 (6.0) μmol/l and the “P-vitamin E” value ([2]; before treatment) was 30.2 (1.8) μmol/l. The U-8-iso-PGF2α [2, 5] was 629 (124) pg/mg creatinine, the U-8-iso-PGF2α ([2]; before treatment (day 1)) was 417 (46) pg/mg creatinine and the B-ESR [3] was 11 (2) mm/h. For the same compound, the B-erythrocyte count [3] was 4.8 (0.1) 10^12/l, the B-haematocrit [3] was 41 (1) % and the B-haemoglobin [3] was 13.1 (0.4) g/dl. The B-leukocyte count [3] was 6.5 (0.5) 10^9/l, the B-platelet count [3] was 324 (23) 10^9/l and the B-reticulocyte count [3] was 0.068 (0.006) 10^12/l. The “Hypochromic red cells (HYPO)” value [3] was 10.4 (3.6) %, the MCH [3] was 27 (0.8) pg and the MCHC [3] was 31.8 (0.4) g/dl. The MCV [3] was 86 (1.6) fl, the “Reticulocyte haemoglobin (CHr)” value [3] was 29.3 (0.8) pg and the S-CRP [3] was 7 (2) mg/l. The S-ferritin [3] was 13 (2) μg/l, the S-iron [3] was 11.1 (2.0) μmol/l and the “S-total iron binding capacity” value [3] was 81 (2) μmol/l. For the same compound, the “decrease in the hypochromic red cells” value [3] was −2.5%, the “decrease in the serum total iron binding capacity” value [3] was -7 µmol/L and the “increase in blood reticulocyte count” value [3] was 1.6e+10 L⁻¹. The increase in s-ferritin [3] was 12 µg/L, the “increase in the reticulocyte haemoglobin” value [3] was 1.9 pg and the “increase of blood haemoglobin” value [3] was “Neither iron(II) sulfate nor iron(III)-polymaltose complex increased the blood haemoglobin”. For the same compound, the B-ESR ([3]; po) was 10 (2) mm/h, the B-erythrocyte count ([3]; po) was 4.8 (0.1) 10^12/l and the B-haematocrit ([3]; po) was 42 (1)* %. The B-haemoglobin ([3]; po) was 13.3 (0.3) g/dl, the B-leukocyte count ([3]; po) was 6.3 (0.4) 10^9/l and the B-platelet count ([3]; po) was 306 (21) 10^9/l. For the same compound, the B-reticulocyte count ([3]; po) was 0.084 (0.007) 10^12/l, the “Hypochromic red cells (HYPO)” value ([3]; po) was 8.8 (3.2)* % and the MCH ([3]; po) was 28 (0.8)*# pg. The MCHC ([3]; po) was 32.0 (0.3) g/dl, the MCV ([3]; po) was 87 (1.3)* fl and the “Reticulocyte haemoglobin (CHr)” value ([3]; po) was 31.1 (0.7)* pg. For the same compound, the S-CRP ([3]; po) was 6 (2) mg/l, the S-ferritin ([3]; po) was 25 (3)*# μg/l and the S-iron ([3]; po) was 14.2 (2.2) μmol/l. The “S-total iron binding capacity” value ([3]; po) was 74 (2)*# μmol/l.

Source: patent US20080234226A1, “Use Of Iron(III) Complex Compounds For The Preparation Of A Medicament For Oral Treatment Of Iron Deficiency States In Patients With Chronic Inflammatory Bowel Disease” (VIFOR (INTERNATIONAL) AG, priority 2005, published 2008)
